Read-outs that look alike come from different tables or passages of the source.
Experiments:
[1] = tested on: SARS-CoV-2; test: Anti-viral potency in VERO E6 cells (cytopathic viral activity, crystal violet); format: cell-based; settings: Severe acute respiratory syndrome coronavirus 2, Vero C1008, 48 h, read-out: SARS-COV-2 EC50 (μM)
[2] = tested on: human Hep G2 cells (ATCC HB-8065); test: Cytotoxicity in Hep G2 cells (CellTiter-Glo); format: cell-based
[3] = target: T1, SARS-CoV-2 PLpro (Severe acute respiratory syndrome coronavirus 2, UniProt P0DTD1); test: biochemical
T1 construct: containing 60 nM papain-like protease

[4] = Hep G2 cells, 100 μM test article, 24-hour exposure
[5] = 60 nM papain-like protease, 50 μM Z-RLRGG-AMC, pH 7.5, 37° C., read-out: SARS-CoV-2 PLpro IC50

Row | SMILES | EC50 [1] [µM] | % Cell Viability [2, 4] [%] | IC50 [3, 5] [µM] | % Cell Viability ([2]; human, 24 h, 100 μM) [%] | IC50 [3] [µM]
1 | COc1cc(-c2cn(C)nc2C)cc([C@@H](C)NC(=O)c2cc(N3CCN(C)CC3)ccc2C)c1 [Example 233, N-[(1R)-1-[3-(1,3-Dimethylpyrazol-4-yl)-5-methoxy-phenyl]ethyl]-2-methyl-5-(4-methylpiperazin-1-yl)benzamide] | < 5 | 88.9 | < 2 | – | –
2 | Cc1ccc(N2CCNCC2)cc1C(=O)N[C@H](C)c1cccc(-c2cnn(C)c2)c1 [Example 72, 2-Methyl-N-[(1R)-1-[3-(1-methylpyrazol-4-yl)phenyl]ethyl]-5-piperazin-1-yl-benzamide] | < 5 | 79.0 | < 2 | – | –
3 | COc1cc(-c2cn(C)nc2C)cc([C@@H](C)NC(=O)c2cc(N3C[C@H]4C[C@@H]3CN4C)ccc2C)c1 [Example 230, N-[(1R)-1-[3-(1,3-Dimethylpyrazol-4-yl)-5-methoxy-phenyl]ethyl]-2-methyl-5-[(1R,4R)-5-methyl-2,5-diazabicyclo[2.2.1]heptan-2-yl]benzamide] | < 5 | 38.3 | < 2 | – | –
4 | COc1cc([C@@H](C)NC(=O)c2cc(N3CCN(C)CC3)ccc2C)ccc1-c1cnn(C)c1 [Example 306, N-[(1R)-1-[3-Methoxy-4-(1-methylpyrazol-4-yl)phenyl]ethyl]-2-methyl-5-(4-methylpiperazin-1-yl)benzamide] | < 5 | 88.4 | < 2 | – | –
5 | COc1cc(-c2cnn(C3CC3)c2)cc([C@@H](C)NC(=O)c2cc(N3CCN(C)CC3)ccc2C)c1 [Example 221, N-[(1R)-1-[3-(1-Cyclopropylpyrazol-4-yl)-5-methoxy-phenyl]ethyl]-2-methyl-5-(4-methylpiperazin-1-yl)benzamide] | < 5 | 74.9 | < 2 | – | –
6 | COc1ccc([C@@H](C)NC(=O)c2cc(N3CCN(C)CC3)ccc2C)cc1-c1cnn(C)c1 [Example 205, N-[(1R)-1-[4-Methoxy-3-(1-methylpyrazol-4-yl)phenyl]ethyl]-2-methyl-5-(4-methylpiperazin-1-yl)benzamide] | < 5 | 105.8 | < 2 | – | –
7 | COc1cc(-c2cnn(C)c2)cc([C@@H](C)NC(=O)c2cc(N3C[C@H]4CC[C@@H](C3)N4)ccc2C)c1 [Example 272, 5-[(1R,5S)-3,8-diazabicyclo[3.2.1]octan-3-yl]-N-[(1R)-1-[3-methoxy-5-(1-methyl-1H-pyrazol-4-yl)phenyl]ethyl]-2-methylbenzamide] | < 5 | – | – | 74.3 | < 2
8 | COc1ccc([C@@H](C)NC(=O)c2cc(N3CCN(C)CC3)ccc2C)cc1OCC1CC1 [Example 296, N-[(1R)-1-[3-(Cyclopropylmethoxy)-4-methoxy-phenyl]ethyl]-2-methyl-5-(4-methylpiperazin-1-yl)benzamide] | < 15 | 76.1 | < 2 | – | –
9 | COc1ccc(-c2cnn(C)c2)cc1[C@@H](C)NC(=O)c1cc(N2CCN(C)CC2)ccc1C [Example 239, N-[(1R)-1-[2-Methoxy-5-(1-methylpyrazol-4-yl)phenyl]ethyl]-2-methyl-5-(4-methylpiperazin-1-yl)benzamide] | < 5 | 101.6 | < 2 | – | –
10 | COCCOc1ccc([C@@H](C)NC(=O)c2cc(N3CCN(C)CC3)ccc2C)cc1-c1cnn(C)c1 [Example 280, N-[(1R)-1-[4-(2-Methoxyethoxy)-3-(1-methylpyrazol-4-yl)phenyl]ethyl]-2-methyl-5-(4-methylpiperazin-1-yl)benzamide] | < 5 | 76.7 | < 2 | – | –
11 | Cc1ccc(N2CCN(C)CC2)cc1C(=O)N[C@H](C)c1cccc(-c2cn(C)nc2C)c1 [Example 61, N-[(1R)-1-[3-(1,3-Dimethylpyrazol-4-yl)phenyl]ethyl]-2-methyl-5-(4-methylpiperazin-1-yl)benzamide] | < 5 | 69.2 | < 2 | – | –

Reference: patent publication US20240383852A1, “ANTI-VIRAL COMPOUNDS” (INFEX Therapeutics Limited, priority 2021, published 2024)
